This note sets out measurements from US10286022B2, “Medicinal composition of extract of seed of emblica officinalis and method of preparing the same” (priority 2013, dated 2019).

The test system of assay [1] is Triton WR 1339 induced dyslipidemia in Albino rats (Sprague Dawley strain). As to the kind of experiment: Hypolipidemic activity compared with other amla extracts, Triton WR 1339 model (Example 20). It is filed as in vivo, rat. Here is the method:
Forty eight male Albino rats (Sprague Dawley strain) weighing approximate 250-300 gm were selected for the study. The animals were kept in the animal house maintained at temp 24±2° C., 65% relative humidity and 12 hr light/dark cycle. The rats were acclimatized for two weeks and during this period they had access to standard pellet diet and water ad libitum. After two weeks of acclimatization, all the rats were fasted overnight before injecting Triton WR 1339 (Tyloxapol) and administration of test extracts/standard. The animals were divided into eight groups. Following treatment was given to overnight fasted rats: • Group I: Normal control (vehicle only). • Group II: Triton WR 1339 (300 mg/kg, intraperitoneal). • Group III: Triton WR 1339 (300 mg/kg, intraperitoneal) followed by amla seed extract prepared as per example 1 (2.5 mg/kg, per oral). • Group IV: Triton WR 1339 (300 mg/kg, intraperitoneal) followed by amla extract prepared as per example 3 (40 mg/kg, per oral). • Group V: Triton WR 1339 (300 mg/kg, intraperitoneal) followed by amla extract prepared as per example 4 (40 mg/kg, per oral). • Group VI: Triton WR 1339 (300 mg/kg, intraperitoneal) followed by amla extract prepared as per example 5 (40 mg/kg, per oral). • Group VII: Triton WR 1339 (300 mg/kg, intraperitoneal) followed by amla extract prepared as per example 6 (40 mg/kg, per oral). • Group VIII: Triton WR 1339 (300 mg/kg, intraperitoneal) followed by atorvastatin (10 mg/kg, per oral).
The animals were deprived of food for next 24 hours but had free access to water ad libitum. After 24 hour of drug treatment 2 ml blood samples were collected from the retro orbital plexus. The blood was allowed to clot and then centrifuged at 3000 rpm for 10 min and the serum was carefully drawn and collected into separate tubes. The serum was analyzed for total cholesterol, triglycerides, high density lipoproteins (HDL), low density lipoproteins (LDL) and very low density lipoproteins (VLDL) levels using auto-analyzer.

The test system is the same in assay [2]. As to the kind of experiment: Hypolipidemic activity of product 3 compared with amla seed powder, Triton WR 1339 model (Example 26). It is filed as in vivo, rat. Here is the method:
Twenty eight male Albino rats (Sprague Dawley strain) weighing approximately 250-300 gm were selected for the study. The animals were maintained at temperature of 24±2° C., 65% relative humidity and 12 hr light/dark cycle. The rats were acclimatized for two weeks and during this period they had access to standard pellet diet and water ad libitum. After two weeks of acclimatization, all the rats were fasted overnight before injecting Triton WR 1339 (Tyloxapol) and administration of test extracts/standard. The animals were divided into seven groups. Following treatment was given to overnight fasted rats: • Group I: Normal control (vehicle only) • Group II: Triton WR 1339 (300 mg/kg, intraperitoneal) • Group III: Triton WR 1339 (300 mg/kg, intraperitoneal) followed by administering product of amla seed extract (product 3) on the same day of triton administration (0.5 mg/kg, per oral) • Group IV: Triton WR 1339 (300 mg/kg, intraperitoneal) followed by product 2 (50% methanol fraction+80% methanol fraction+water fraction) of amla seed extract on the same day that Triton was administered (0.5 mg/kg, per oral) • Group V: Triton WR 1339 (300 mg/kg, intraperitoneal) followed by product 1 (Hexane fraction) of amla seed extract on the same day that Triton was administered (0.5 mg/kg, per oral) • Group VI: Triton WR 1339 (300 mg/kg, intraperitoneal) followed by powder of dried amla seed prepared as per Example 7 (0.5 mg/kg, per oral). The powder of dried amla seed was administered on the same day as triton was administered. • Group VII: Triton WR 1339 (300 mg/kg, intraperitoneal) followed by atorvastatin administration (10 mg/kg, per oral), on the same day.
The animals were deprived of food for next 24 hours but had free access to water ad libitum. After 24 hours of drug treatment, 2 ml of blood sample was collected from the retro orbital plexus. The blood was allowed to clot and then centrifuged at 3000 rpm for 10 min and the serum was carefully drawn and collected into separate tubes. The serum was analyzed for total cholesterol, triglycerides, high density lipoproteins (HDL), low density lipoproteins (LDL) and very low density lipoproteins (VLDL) levels using auto-analyzer.

[3] abbreviates: 24 h after Triton i.p. + 10 mg/kg p.o.

In the case of `CC(C)c1c(C(=O)Nc2ccccc2)c(-c2ccccc2)c(-c2ccc(F)cc2)n1CC[C@@H](O)C[C@@H](O)CC(=O)O` [Atorvastatin], in assay [1] (setting [3]), the “HDL After” value was 33.84 mg/dL, the “LDL After” value worked out at 55.00 mg/dL, the “TC After” value turned out to be 132.58 mg/dL and the “TG After” value turned out to be 218.66 mg/dL. Also, the “VLDL After” value in assay [1] (setting [3]) worked out at 43.73 mg/dL. Also, in assay [1] (baseline, 10 mg/kg p.o. group), the “HDL Before” value amounted to 35.11 mg/dL, the “LDL Before” value was 52.43 mg/dL, the “TC Before” value was 97.33 mg/dL and the “TG Before” value came to 48.99 mg/dL. Moreover, the “VLDL Before” value in assay [1] (baseline, 10 mg/kg p.o. group) came out at 9.79 mg/dL. Also, the “effect on cholesterol and triglyceride level” value in assay [1] (other amla extracts 40 mg/kg vs seed extract 2.5 mg/kg, atorvastatin 10 mg/kg p.o.) is listed as “effective in lowering the cholesterol as well as triglyceride levels”. Moreover, in assay [2] (setting [3]), the “HDL After” value is 38.46 mg/dL, the “LDL After” value came out at 44.30 mg/dL, the “TC After” value is 121.21 mg/dL and the “TG After” value amounted to 192.25 mg/dL. Further, in assay [2] (setting [3]), the “VLDL After” value was found to be 44.30 mg/dL. Also, in assay [2] (baseline, 10 mg/kg p.o. group), the “HDL Before” value came out at 35.54 mg/dL, the “LDL Before” value was 58.22 mg/dL, the “TC Before” value was 103.47 mg/dL and the “TG Before” value came to 48.54 mg/dL. The “VLDL Before” value in assay [2] (baseline, 10 mg/kg p.o. group) was determined as 58.22 mg/dL.
